Where two headings read alike, the source gives them in different places.
Legend:
[1] = target: GDP-bound KRAS wild-type protein (Homo sapiens, UniProt P01116); assay: Binding to KRAS by surface plasmon resonance (SPR), dissociation constant KD
Outline: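 GDP-bound biotin-Avi RAS captured at ~100–300 RU, 30°C, pH 7.4 HBS containing 10 µM GDP, 10 mM MgCl2, 1 mM DTT, 0.01% Tween 20 and 4% DMSO. KD by 1:1 fitting.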

[2] = target: GDP-bound NRAS wild-type protein (Homo sapiens, UniProt P01111); assay: Binding to NRAS by surface plasmon resonance (SPR), KD and KD ratio to KRAS
Outline: (§1)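 Captured GDP-RAS (~100–300 RU) was exposed to increasing compound concentrations, 75 s per step, in running buffer with 10 µM GDP, 10 mM MgCl2 and 4% DMSO at pH 7.4.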

[3] = test system: human lung cancer strain NCI-H441; assay: NCI-H441 cell proliferation inhibitory activity (CellTiter-Glo, 4 days); assay type: cell-based; conditions: read-out: NCl-H441 IC50
Outline: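 Step one: dispense the test compound in serial DMSO dilutions. Step three: add the reagent and measure […].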

HRAS wild-type protein = HRAS wild-type protein (Homo sapiens, UniProt P01112); assay: Binding to HRAS by surface plasmon resonance (SPR), KD and KD ratio to KRAS
Outline: as §1

[4] = ratio of KD for GDP-bound NRAS wild-type protein to KD for KRAS
[5] = ratio of KD for HRAS wild-type protein to KD for KRAS
[6] = Single Cycle Kinetics, 1:1 binding model
[7] = ratio of KD with respect to GDP-bound NRAS wild-type protein to KD with respect to KRAS
[8] = 50% proliferation inhibitory concentration, four days
[9] = ratio of KD with respect to HRAS wild-type protein to KD with respect to KRAS

Chain of GDP-bound KRAS wild-type protein (P01116 1-188 isoform P01116-2): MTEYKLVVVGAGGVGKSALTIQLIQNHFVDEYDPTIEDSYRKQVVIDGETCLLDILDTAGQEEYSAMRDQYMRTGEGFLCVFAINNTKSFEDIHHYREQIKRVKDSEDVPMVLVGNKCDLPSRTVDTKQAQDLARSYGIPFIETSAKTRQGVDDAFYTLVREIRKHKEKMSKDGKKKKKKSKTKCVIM
Chain of HRAS wild-type protein (P01112 whole entry): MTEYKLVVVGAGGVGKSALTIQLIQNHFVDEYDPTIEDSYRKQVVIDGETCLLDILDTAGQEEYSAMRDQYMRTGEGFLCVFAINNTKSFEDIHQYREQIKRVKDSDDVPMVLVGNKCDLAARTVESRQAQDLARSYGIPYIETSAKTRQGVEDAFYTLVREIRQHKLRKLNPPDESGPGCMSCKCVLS
Chain of GDP-bound NRAS wild-type protein (P01111 whole entry): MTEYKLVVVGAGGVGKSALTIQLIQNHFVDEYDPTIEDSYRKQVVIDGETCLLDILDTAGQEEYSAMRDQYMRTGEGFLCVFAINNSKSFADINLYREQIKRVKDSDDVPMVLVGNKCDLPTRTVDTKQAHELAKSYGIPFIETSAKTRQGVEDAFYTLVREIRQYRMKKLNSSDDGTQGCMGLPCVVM

CCC[C@H]1C(=O)N[C@@H]([C@@H](C)CC)C(=O)N(C)CC(=O)N(C)[C@H]2C/C=C\CCN(C2=O)[C@@H](Cc2ccc(C)cc2)C(=O)N(C)CC(=O)N[C@@H](CCc2ccc(C(F)(F)F)c(Cl)c2)C(=O)N2CC3(CC3)C[C@H]2C(=O)N(C)C2(CCC2)C(=O)N(C)[C@@H]([C@@H](C)CC)C(=O)N(C)[C@H](C(=O)N(C)C)CC(=O)N1C [PP3302]
Kd ([1]; Single Cycle Kinetics): 0.081 nM | NRAS /KRAS [2, 4]: A (a compound having 10 or more and less than 20 is denoted as A) | IC50 ([3]; NCI-H441 cells, 4 days): 9 nM | HRAS /KRAS (HRAS wild-type protein; [5]): A (a compound having 10 or more and less than 20 is denoted as A)

CCC[C@H]1C(=O)N[C@H]([C@@H](C)CC)C(=O)N2C[C@@H](OC)C[C@H]2C(=O)N(C)[C@H]2C/C=C\CCN(C2=O)[C@@H](Cc2ccc(C)cc2)C(=O)N(C)CC(=O)N[C@@H](CCc2ccc(C(F)(F)F)c(Cl)c2)C(=O)N2C[C@H](OCC)C[C@H]2C(=O)NC2(CCC2)C(=O)N(C)[C@@H](C2CCCC2)C(=O)N(C)[C@H](C(=O)N(C)C)CC(=O)N1C [PP2552]
Kd ([1]; 1:1 binding model): 0.28 nM | NRAS /KRAS [2, 4]: A (a compound having 10 or more and less than 20 is denoted as A) | IC50 ([3]; NCI-H441 cells, 4 days): 30.5 nM | HRAS /KRAS (HRAS wild-type protein; [5]): B (a compound having 3 or more and less than 10 is denoted as B)

CCO[C@@H]1C[C@H]2C(=O)NC3(CCC3)C(=O)N(C)[C@@H](C3CCCC3)C(=O)N(C)[C@H](C(=O)N3CCOCC3)CC(=O)N(C)[C@@H](CC)C(=O)N[C@@H]([C@@H](C)CC)C(=O)N(C)CC(=O)N(C)[C@H]3CC[C@@H](C)CN(C3=O)[C@@H](Cc3ccc(C(F)(F)F)cc3)C(=O)N(C)CC(=O)N[C@@H](CCc3cc(F)c(C(F)(F)F)c(F)c3)C(=O)N2C1 [PP1372]
Kd [1, 6]: 0.078 nM | NRAS /KRAS [2, 7]: B (a compound having 3 or more and less than 10 is denoted as B) | IC50 [3, 8]: 5 nM | HRAS /KRAS (HRAS wild-type protein; [9]): B (a compound having 3 or more and less than 10 is denoted as B)

CCO[C@@H]1C[C@H]2C(=O)NC3(CCC3)C(=O)N(C)[C@@H](C3CCCC3)C(=O)N(C)[C@H](C(=O)N3CCOCC3)CC(=O)N(C)[C@@H](CC(F)F)C(=O)N[C@@H]([C@@H](C)CC)C(=O)N(C)CC(=O)N(C)[C@H]3C/C=C\CCN(C3=O)[C@@H](Cc3ccc(C(F)(F)F)cc3)C(=O)N(C)CC(=O)N[C@@H](CCc3cc(F)c(C(F)(F)F)c(F)c3)C(=O)N2C1 [PP1285]
Kd [1, 6]: 0.15 nM | NRAS /KRAS [2, 7]: AA (a compound having 20 or more is denoted as AA) | IC50 [3, 8]: 24.6 nM | HRAS /KRAS (HRAS wild-type protein; [9]): A (a compound having 10 or more and less than 20 is denoted as A)

CCO[C@@H]1C[C@H]2C(=O)NC3(CCCC3)C(=O)N(C)[C@@H](C3CCCC3)C(=O)N(C)[C@H](C(=O)N(C)C)CC(=O)N(C)[C@@H]([C@@H](C)OC)C(=O)N[C@@H]([C@@H](C)CC)C(=O)N(C3CC3)CC(=O)N(C)[C@H]3C/C=C\CCN(C3=O)[C@@H](Cc3ccc(C(F)(F)F)cc3)C(=O)N(C)CC(=O)N[C@@H](CCc3cc(F)c(C(F)(F)F)c(F)c3)C(=O)N2C1 [PP3476]
Kd ([1]; Single Cycle Kinetics): 0.37 nM | NRAS /KRAS [2, 4]: A (a compound having 10 or more and less than 20 is denoted as A) | IC50 ([3]; NCI-H441 cells, 4 days): 15.2 nM | HRAS /KRAS (HRAS wild-type protein; [5]): A (a compound having 10 or more and less than 20 is denoted as A)

CCC[C@H]1C(=O)N[C@@H]([C@@H](C)CC)C(=O)N2CCCC[C@H]2C(=O)N(C)[C@H]2C/C=C\CCN(C2=O)[C@@H](Cc2ccc(C(F)(F)F)cc2)C(=O)N(C)CC(=O)N[C@@H](CCc2ccc(C(F)(F)F)c(Cl)c2)C(=O)N2C[C@H](OCC)C[C@H]2C(=O)N(C)C2(CCC2)C(=O)N(C)[C@@H](C2CCCC2)C(=O)N(C)[C@H](C(=O)N(C)C)CC(=O)N1C [PP3272]
Kd ([1]; Single Cycle Kinetics): 0.96 nM | NRAS /KRAS [2, 4]: A (a compound having 10 or more and less than 20 is denoted as A) | IC50 ([3]; NCI-H441 cells, 4 days): 19.4 nM | HRAS /KRAS (HRAS wild-type protein; [5]): B (a compound having 3 or more and less than 10 is denoted as B)

CC[C@H](C)[C@@H]1NC(=O)[C@H](COC)N(C)C(=O)C[C@@H](C(=O)N(C)C)N(C)C(=O)[C@H](C2CCCC2)N(C)C(=O)C2(CC(C)(C)C2)NC(=O)[C@@H]2C[C@@H](C)CN2C(=O)[C@H](CCc2ccc(C(F)(F)F)c(OC)c2)NC(=O)CN(C)C(=O)[C@H](Cc2ccc(C)cc2)N2CC/C=C\C[C@@H](C2=O)N(C)C(=O)CN(C)C1=O [PP2387]
Kd ([1]; 1:1 binding model): 0.11 nM | NRAS /KRAS [2, 4]: A (a compound having 10 or more and less than 20 is denoted as A) | IC50 ([3]; NCI-H441 cells, 4 days): 16.5 nM | HRAS /KRAS (HRAS wild-type protein; [5]): A (a compound having 10 or more and less than 20 is denoted as A)

CCC[C@H]1C(=O)N[C@@H]([C@@H](C)CC)C(=O)N(C)CC(=O)N(C)[C@H]2C/C=C\CCN(C2=O)[C@@H](Cc2ccc(C(F)(F)F)cc2)C(=O)N(C)CC(=O)N[C@@H](CCc2ccc(Cl)c(Cl)c2)C(=O)N2C[C@H](OCC)C[C@H]2C(=O)NC2(CC(C)(C)C2)C(=O)N(C)[C@@H](CC2CCC2)C(=O)N(C)[C@H](C(=O)N(C)C)CC(=O)N1C [PP2766]
Kd ([1]; 1:1 binding model): 0.52 nM | NRAS /KRAS [2, 4]: A (a compound having 10 or more and less than 20 is denoted as A) | IC50 ([3]; NCI-H441 cells, 4 days): 26 nM | HRAS /KRAS (HRAS wild-type protein; [5]): A (a compound having 10 or more and less than 20 is denoted as A)

CCOC[C@H]1C(=O)N[C@@H]([C@@H](C)CC)C(=O)N(C)CC(=O)N(C)[C@H]2C/C=C\CCN(C2=O)[C@@H](Cc2ccc(C)cc2)C(=O)N(C)CC(=O)N[C@@H](CCc2ccc(C(F)(F)F)c(Cl)c2)C(=O)N2C[C@@H](C)C[C@H]2C(=O)NC2(CC(C)(C)C2)C(=O)N(C)[C@@H](C2CCCC2)C(=O)N(C)[C@H](C(=O)N(CC)CC)CC(=O)N1C [PP2465]
Kd ([1]; 1:1 binding model): 0.51 nM | NRAS /KRAS [2, 4]: AA (a compound having 20 or more is denoted as AA) | IC50 ([3]; NCI-H441 cells, 4 days): 39.4 nM | HRAS /KRAS (HRAS wild-type protein; [5]): A (a compound having 10 or more and less than 20 is denoted as A)

CCO[C@@H]1C[C@H]2C(=O)NC3(CCC3)C(=O)N(C)[C@@H](C3CCCC3)C(=O)N(C)[C@H](C(=O)N(C)C)CC(=O)N(C)[C@@H](Cc3cccc(C#N)c3)C(=O)N[C@@H]([C@@H](C)CC)C(=O)N(C)CC(=O)N(C)[C@H]3CCCCCN(C3=O)[C@@H](Cc3ccc(F)cc3)C(=O)N(C)CC(=O)N[C@@H](CCc3cc(F)c(C(F)(F)F)c(F)c3)C(=O)N2C1 [PP1156]
Kd [1, 6]: 0.063 nM | NRAS /KRAS [2, 7]: B (a compound having 3 or more and less than 10 is denoted as B) | IC50 [3, 8]: 33.7 nM | HRAS /KRAS (HRAS wild-type protein; [9]): B (a compound having 3 or more and less than 10 is denoted as B)

CC[C@H](C)[C@@H]1NC(=O)[C@H](CC(C)C)N(C)C(=O)C[C@@H](C(=O)N(C)C)N(C)C(=O)[C@H](C2CCCC2)N(C)C(=O)C2(CCCC2)NC(=O)[C@@H]2CCN2C(=O)[C@H](CCc2cc(F)c(C(F)(F)F)c(F)c2)NC(=O)CN(C)C(=O)[C@H](Cc2ccc(C)cc2)N2CC/C=C(/F)C[C@@H](C2=O)N(C)C(=O)CN(C)C1=O [PP3522]
Kd ([1]; Single Cycle Kinetics): 2.6 nM | NRAS /KRAS [2, 4]: B (a compound having 3 or more and less than 10 is denoted as B) | IC50 ([3]; NCI-H441 cells, 4 days): 48.7 nM | HRAS /KRAS (HRAS wild-type protein; [5]): B (a compound having 3 or more and less than 10 is denoted as B)

CCCOC[C@@H]1NC(=O)C[C@@H](C(=O)N(C)CCC)N(C)C(=O)[C@H](C2CCCC2)N(C)C(=O)C2(CC(C)(C)C2)NC(=O)[C@@H]2C[C@@H](OCC)CN2C(=O)[C@H](CCc2ccc(C(F)(F)F)c(Cl)c2)NC(=O)CN(C)C(=O)[C@H](Cc2ccc(C(F)(F)F)cc2)N2CC/C=C\C[C@@H](C2=O)N(C)C(=O)CN(C)C(=O)[C@H]([C@@H](C)CC)NC1=O [PP3450]
Kd ([1]; Single Cycle Kinetics): 0.51 nM | NRAS /KRAS [2, 4]: A (a compound having 10 or more and less than 20 is denoted as A) | IC50 ([3]; NCI-H441 cells, 4 days): 43.3 nM | HRAS /KRAS (HRAS wild-type protein; [5]): A (a compound having 10 or more and less than 20 is denoted as A)

CCC(CC)[C@H]1C(=O)N(C)[C@H](C(=O)N(C)C)CC(=O)N(C)[C@@H](COC)C(=O)N[C@@H]([C@@H](C)CC)C(=O)N(C2CC2)CC(=O)N(C)[C@H]2C/C=C\CCN(C2=O)[C@@H](CC2CCC(F)(F)CC2)C(=O)N(C)CC(=O)N[C@@H](CCc2cc(F)c(C(F)(F)F)c(F)c2)C(=O)N2C[C@H](OC3CCC3)C[C@H]2C(=O)NC2(CC(C)(C)C2)C(=O)N1C [PP2615]
Kd ([1]; 1:1 binding model): 2 nM | NRAS /KRAS [2, 4]: A (a compound having 10 or more and less than 20 is denoted as A) | IC50 ([3]; NCI-H441 cells, 4 days): 88.7 nM | HRAS /KRAS (HRAS wild-type protein; [5]): A (a compound having 10 or more and less than 20 is denoted as A)

CCCO[C@@H]1C[C@H]2C(=O)NC3(CC(C)(C)C3)C(=O)N(C)[C@@H](C3CCCC3)C(=O)N(C)[C@H](C(=O)N(C)CC)CC(=O)N[C@@H](COCC)C(=O)N[C@@H]([C@@H](C)CC)C(=O)N3CCC[C@H]3C(=O)N(C)[C@H]3C/C=C\CCN(C3=O)[C@@H](Cc3ccc(C)cc3)C(=O)N(C)CC(=O)N[C@@H](CCc3ccc(C(F)(F)F)c(Cl)c3)C(=O)N2C1 [PP3431]
Kd ([1]; Single Cycle Kinetics): 3 nM | NRAS /KRAS [2, 4]: A (a compound having 10 or more and less than 20 is denoted as A) | IC50 ([3]; NCI-H441 cells, 4 days): 79.5 nM | HRAS /KRAS (HRAS wild-type protein; [5]): A (a compound having 10 or more and less than 20 is denoted as A)

From patent publication EP4603105A1, “PHARMACEUTICAL COMPOSITION CONTAINING CYCLIC COMPOUND HAVING SELECTIVE KRAS INHIBITORY EFFECT AGAINST HRAS AND NRAS” (CHUGAI SEIYAKU KABUSHIKI KAISHA, priority 2022, dated 2024)
